According to the NIST ThermoML archive (doi:10.1021/je0601208):
Numbers after ± are expanded uncertainties.

Experiments:
[1] = xn = mol fraction of the nth substance listed
[2] = refractive index (Na D-line) (dimensionless); xn = mol fraction of the nth substance listed; conditions: 100.5 kPa, Liquid, Standard Abbe refractometry

CC(=O)OCCC(C)C [3-methylbutyl ethanoate] + CCO
Conditions	refractive index, [2]	surface tension liquid-gas, [1] [mN/m]
288.15 K, x1 = 0.05	1.36803 ± 0.00031	23.2 ± 0.4
288.15 K, x1 = 0.1	1.37207 ± 0.00031	23.4 ± 0.4
288.15 K, x1 = 0.15	1.37559 ± 0.00032	23.6 ± 0.4
288.15 K, x1 = 0.2	1.3787 ± 0.00032	23.7 ± 0.4
288.15 K, x1 = 0.25	1.38146 ± 0.00032	23.8 ± 0.4
288.15 K, x1 = 0.3	1.38393 ± 0.00032	24 ± 0.4
288.15 K, x1 = 0.35	1.38614 ± 0.00032	24.1 ± 0.4
288.15 K, x1 = 0.4	1.38814 ± 0.00032	24.2 ± 0.4
288.15 K, x1 = 0.45	1.38996 ± 0.00032	24.3 ± 0.4
288.15 K, x1 = 0.5	1.39164 ± 0.00032	24.4 ± 0.4
288.15 K, x1 = 0.55	1.39319 ± 0.00032	24.5 ± 0.4
288.15 K, x1 = 0.6	1.39462 ± 0.00033	24.6 ± 0.4
288.15 K, x1 = 0.65	1.39595 ± 0.00033	24.7 ± 0.4
288.15 K, x1 = 0.7	1.39717 ± 0.00033	24.8 ± 0.4
288.15 K, x1 = 0.75	1.39829 ± 0.00033	24.9 ± 0.4
288.15 K, x1 = 0.8	1.39933 ± 0.00033	25 ± 0.4
288.15 K, x1 = 0.85	1.40031 ± 0.00034	25.1 ± 0.4
288.15 K, x1 = 0.9	1.40122 ± 0.00034	25.2 ± 0.4
288.15 K, x1 = 0.95	1.40207 ± 0.00034	25.3 ± 0.4
288.15 K, x1 = 1	1.40288 ± 0.00034	25.4 ± 0.4
298.15 K, x1 = 0.05	1.36393 ± 0.00031	22.4 ± 0.4
298.15 K, x1 = 0.1	1.36787 ± 0.00031	22.5 ± 0.4
298.15 K, x1 = 0.15	1.37133 ± 0.00032	22.7 ± 0.4
298.15 K, x1 = 0.2	1.3744 ± 0.00032	22.8 ± 0.4
298.15 K, x1 = 0.25	1.37712 ± 0.00032	22.9 ± 0.4
298.15 K, x1 = 0.3	1.37954 ± 0.00032	–
298.15 K, x1 = 0.35	1.38172 ± 0.00032	23 ± 0.4
298.15 K, x1 = 0.4	1.3837 ± 0.00032	23.1 ± 0.4
298.15 K, x1 = 0.45	1.3855 ± 0.00032	23.2 ± 0.4
298.15 K, x1 = 0.5	1.38717 ± 0.00032	23.3 ± 0.4
298.15 K, x1 = 0.55	1.38871 ± 0.00032	23.4 ± 0.4
298.15 K, x1 = 0.6	1.39013 ± 0.00033	23.5 ± 0.4
298.15 K, x1 = 0.65	1.39144 ± 0.00033	23.6 ± 0.4
298.15 K, x1 = 0.7	1.39265 ± 0.00033	23.7 ± 0.4
298.15 K, x1 = 0.75	1.39378 ± 0.00033	23.8 ± 0.4
298.15 K, x1 = 0.8	1.39482 ± 0.00033	23.9 ± 0.4
298.15 K, x1 = 0.85	1.3958 ± 0.00034	24 ± 0.4
298.15 K, x1 = 0.9	1.3967 ± 0.00034	24.1 ± 0.4
298.15 K, x1 = 0.95	1.39755 ± 0.00034	24.2 ± 0.4
298.15 K, x1 = 1	1.39836 ± 0.00034	24.3 ± 0.4
308.15 K, x1 = 0.05	1.35964 ± 0.00031	21.6 ± 0.4
308.15 K, x1 = 0.1	1.36349 ± 0.00031	21.6 ± 0.4
308.15 K, x1 = 0.15	1.3669 ± 0.00032	21.7 ± 0.4
308.15 K, x1 = 0.2	1.36992 ± 0.00032	21.8 ± 0.4
308.15 K, x1 = 0.25	1.3726 ± 0.00032	21.9 ± 0.4
308.15 K, x1 = 0.3	1.37499 ± 0.00032	22 ± 0.4
308.15 K, x1 = 0.35	1.37714 ± 0.00032	22.1 ± 0.4
308.15 K, x1 = 0.4	1.37909 ± 0.00032	22.2 ± 0.4
308.15 K, x1 = 0.45	1.38087 ± 0.00032	22.3 ± 0.4
308.15 K, x1 = 0.5	1.38251 ± 0.00032	22.4 ± 0.4
308.15 K, x1 = 0.55	1.38404 ± 0.00032	22.5 ± 0.4
308.15 K, x1 = 0.6	1.38545 ± 0.00033	22.6 ± 0.4
308.15 K, x1 = 0.65	1.38675 ± 0.00033	22.7 ± 0.4
308.15 K, x1 = 0.7	1.38795 ± 0.00033	22.8 ± 0.4
308.15 K, x1 = 0.75	1.38907 ± 0.00033	22.9 ± 0.4
308.15 K, x1 = 0.8	1.39011 ± 0.00033	23 ± 0.4
308.15 K, x1 = 0.85	1.39109 ± 0.00034	23.1 ± 0.4
308.15 K, x1 = 0.9	1.39199 ± 0.00034	23.2 ± 0.4
308.15 K, x1 = 0.95	1.39284 ± 0.00034	23.3 ± 0.4
308.15 K, x1 = 1	1.39365 ± 0.00034	23.4 ± 0.4
318.15 K, x1 = 0.05	1.35556 ± 0.00031	20.6 ± 0.4
318.15 K, x1 = 0.1	1.3593 ± 0.00031	20.6 ± 0.4
318.15 K, x1 = 0.15	1.36263 ± 0.00032	20.7 ± 0.4
318.15 K, x1 = 0.2	1.36558 ± 0.00032	20.8 ± 0.4
318.15 K, x1 = 0.25	1.36821 ± 0.00032	20.9 ± 0.4
318.15 K, x1 = 0.3	1.37056 ± 0.00032	21 ± 0.4
318.15 K, x1 = 0.35	1.37268 ± 0.00032	21.1 ± 0.4
318.15 K, x1 = 0.4	1.3746 ± 0.00032	21.2 ± 0.4
318.15 K, x1 = 0.45	1.37634 ± 0.00032	21.3 ± 0.4
318.15 K, x1 = 0.5	1.37795 ± 0.00032	21.4 ± 0.4
318.15 K, x1 = 0.55	1.37944 ± 0.00032	21.5 ± 0.4
318.15 K, x1 = 0.6	1.38082 ± 0.00033	21.6 ± 0.4
318.15 K, x1 = 0.65	1.38211 ± 0.00033	21.7 ± 0.4
318.15 K, x1 = 0.7	1.3833 ± 0.00033	21.8 ± 0.4
318.15 K, x1 = 0.75	1.3844 ± 0.00033	21.9 ± 0.4
318.15 K, x1 = 0.8	1.38543 ± 0.00033	22 ± 0.4
318.15 K, x1 = 0.85	1.3864 ± 0.00034	22.1 ± 0.4
318.15 K, x1 = 0.9	1.3873 ± 0.00034	22.2 ± 0.4
318.15 K, x1 = 0.95	1.38814 ± 0.00034	22.3 ± 0.4
318.15 K, x1 = 1	1.38895 ± 0.00034	22.4 ± 0.4
